Results on eleven molecules are retold here after patent publication US6538037B2, “Methods for preparation and use of 1α,24(S)-dihydroxyvitamin D2” (Bone Care International, Inc., priority 1991, dated 2003).

The target of one data set is T1, bovine thymus VDR (Bos taurus, UniProt Q28037).
T1 construct: commercially available reagents of bovine thymus VDR; purchased Incstar (Stillwater, Minn.); host or cells: bovine thymus
T1 sequence (Q28037 1-426): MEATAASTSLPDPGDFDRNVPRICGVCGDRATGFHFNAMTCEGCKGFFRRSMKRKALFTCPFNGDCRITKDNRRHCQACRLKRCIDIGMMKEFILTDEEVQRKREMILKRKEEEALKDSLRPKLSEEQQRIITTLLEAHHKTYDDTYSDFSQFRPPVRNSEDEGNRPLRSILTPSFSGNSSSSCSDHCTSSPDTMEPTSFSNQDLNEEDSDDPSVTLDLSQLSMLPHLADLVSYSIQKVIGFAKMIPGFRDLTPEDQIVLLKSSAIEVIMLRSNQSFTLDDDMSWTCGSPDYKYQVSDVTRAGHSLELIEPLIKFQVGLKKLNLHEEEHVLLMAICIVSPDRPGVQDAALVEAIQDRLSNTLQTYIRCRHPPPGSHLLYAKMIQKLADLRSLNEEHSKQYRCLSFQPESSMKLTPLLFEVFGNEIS
The data set can be described thus: Radioreceptor assay, displacement of 3H-1α,25-(OH)2D3 tracer from bovine thymus VDR. The class given is binding. The note with it: for ED50 (amount of material to displace 50% of the bound 3H-1α,25-dihydroxyvitamin D3): environmentally exposed crystalline and powdered material, FIG. 5; for binding affinity to VDR compared with reference standard (in words): environmentally exposed compounds. How it is done:
Purified 1α,24(S)-(OH)2D2 was quantitated by photodiode array spectrophotometry and assayed in the radioreceptor assay.
The purified 1α,24(R)-(OH)2D2 and 1α,24(S)-(OH)2D2 epimers were quantitated by ultraviolet spectroscopy.
The binding affinities of the environmentally exposed compounds, crystalline 1α,24-dihydroxyvitamin D2 and powdered 1α,24-dihydroxyvitamin D2, to the vitamin D receptor (VDR) were assessed using methods known in the art, as described, e.g., in Example 6. […] The percent bound versus amount of compound in pg/tube are graphed in FIG. 5.

A short description of data set [1]: Chemical stability testing, exposure to heat and light. The class given is physicochemical. The note with it: one week; for share of UV absorbing material being 1α,24-dihydroxyvitamin D2 (HPLC): detection at 265 nm; for absorbence at 265 nm retained: specimens exposed to heat and light, reference standard in ethanol in a freezer; for overall retention of the compound (remained intact): after heat and light. How it is done:
Samples of approximately 5 mg of either crystalline or powdered 1α,24-dihydroxyvitamin D2 were each placed in a 5 mL volumetric flask. The flasks were exposed to identical environmental conditions of variations in heat and light. Heat and light are environmental parameters well-known to affect negatively the integrity of vitamin D compounds.
After one week's time, the contents of the flasks were visually inspected. The powdered specimen appeared to be slightly yellow in color compared to the crystalline specimen. Five mL of ethanol was added to each sample and each specimen was dissolved. These solutions were analyzed for ultraviolet absorbence from 200 to 320 nm. A reference standard 1α,24-dihydroxyvitamin D2 dissolved in ethanol at the same concentration and stored in a freezer for the identical time period was similarly analyzed.
The ethanol solutions of the crystalline and powdered 1α,24-dihydroxyvitamin D2 were also analyzed by high performance liquid chromatography (HPLC) under the following conditions: […]

For data set [2] the following is noted: cited from earlier work.
Data set [3] in a line: Plasma metabolites in vitamin D-deficient rats. Type of data set: in vivo, rat. The note with it: for plasma metabolite after administration: oral or intraperitoneal, vitamin D-deficient rats, HPLC of plasma lipid extracts. Here is the method:
Vitamin D2 or 24-OH-D2 was administered (either oral or intraperitoneal supplementation) to vitamin D-deficient rats. Lipid extracts of the plasma were prepared and the metabolites purified by the method of Horst et al. (Horst, R. L., Koszewski, N.J. and Reinhardt, T. A., Biochem., 29:578-82 (1990)) described below for synthesyzing standard biological 1α,24-(OH)2D2.
Standard biological 1α,24-(OH)2D2 was synthesized in vitro from 24-OH-D2 by incubating 10 μg of 24-OH-D2 in flask containing 5 mL of 20% kidney homogenates made from vitamin D-deficient chicks. The product of this reaction was isolated by HPLC and identified by mass spectrometry.

In a further data set the test system is vitamin D receptor (VDR). The data set can be described thus: Vitamin D-inducible growth hormone production in transfected COS-1 cells. Type of data set: cell-based, Green monkey. The note with it: for Total GH Production: averages of duplicate determinations. How it is done: The biological activity in vitro of chemically synthesized 1α,24(S)-(OH)2D2 and 1α,24(R)-(OH)2D2 was measured using a vitamin D-dependent transcriptional activation model system in which a vitamin D receptor (VDR)-expressing plasmid pSG5-hVDR1/3 and a plasmid p(CT4)^4TKGH containing a Growth Hormone (GH)-gene, under the control of a vitamin D-responsive element (VDRE) were co-transfected into Green monkey kidney, COS-1 cells. DNA's for these two vectors were supplied by Dr. Mark Haussler, Department of Biochemistry, University of Arizona, Tucson, Ariz.
Transfected cells were incubated with vitamin D metabolites and growth hormone production was measured.

The next data set concerns Hep 3B cells. In words: Metabolism of 1α-OH-D2 in Hep 3B cells. The class given is in vitro ADME, human. The note with it: Experiment 2, substrate 1α-OH-D2 10 μM, photodiode array spectrophotometry. Here is the method: Substantially pure 1α-(OH)D2 was obtained from Bone Care International, Inc. of Madison, Wis. The 1α-(OH)D2 was cultured for 48 hours with cells derived from a human hepatoma, Hep 3B, in medium devoid of fetal calf serum using known methods in the art.
Lipid extracts of the combined medium and cells were generated by known methods in the art and were subjected to high pressure liquid chromatography (HPLC) on Zorbax-S1L developed with hexane/isopropano/methanol (91:7:2). The putative 1α,24(?)-(OH)2D2 metabolite eluted between the parent 1α-(OH)D2 and standard 1α,25-(OH)2D2 (also obtained from Bone Care International, Inc. of Madison, Wis.). (As used herein, the term “1α,24(?)-(OH)2D2” is meant to indicate that the epimeric form has not been identified.) The 1α,24(?)-(OH)2D2 was further purified by this HPLC system before the metabolite's identification was undertaken using mass spectrometry analysis.
Hep 3B cells were incubated with 1α-OH-D2, as described above, at final concentrations of 1, 10, or 100 nM (Experiment 1), and 1 or 10 μM (Experiment 2) and 1α,24(S)-(OH)2D2 was extracted and purified. The 1α,24(S)-(OH)2D2 and 1α,25-(OH)2D2 metabolites were quantitated by recovered radiolabel (Experiment 1) or by photodiode array spectrophotometry (Experiment 2).

Data set [4] can be described thus: Blood metabolite levels in osteoporotic women administered 1α-OH-D2. Type of data set: in vivo, human. Here is the method: An increase in the production of 1α,24(S)-(OH)2D2 relative to 1α,25-(OH)2D2 has also been observed by the present inventors in human females who received 1α-OH-D2 as part of an investigation of that drug for the treatment of osteoporosis. Following either a single dose of 2 μg of 1α-OH-D2 or daily doses of 8 μg/day for one week, blood was collected and analyzed for the metabolites 1α,24(S)-(OH)2D2 and 1α,25-(OH)2D2. Lipid was extracted from the blood, and the metabolites were purified by HPLC using standard methods and quantified with the radioreceptor assay produced by Incstar (Stillwater, Minn.). One day after a single 2 μg dose, the level of 1α,24(S)-(OH)2D2 was undetectable with the 1α,25-(OH)2D2 level being approximately 11 pg/ml. In contrast, one day following the last dose of 8 μg, the level of 1α,24(S)-(OH)2D2 averaged 9 pg/mL with the 1α,25-(OH)2D2 level averaging 30 pg/mL.

On to `C=C1C(=CC=C2CCCC3(C)C2CCC3C(C)C=CC(C)(O)C(C)C)CC(O)CC1O` (stereo not drawn) [reference standard, 1α,24-dihydroxyvitamin D2], for which the “ED50 (amount of material to displace 50% of the bound 3H-1α,25-dihydroxyvitamin D3)” value on bovine thymus VDR is reported as “about 10 pg/tube”. Besides, in data set [1], the “retention of the structure, weight-based normalization of the HPLC peak area” value turned out to be 100%; the “share of UV absorbing material being 1α,24-dihydroxyvitamin D2 (HPLC)” value (“share” below) was found to be 96%; the “absorbence at 265 nm retained” value is 100%.

As to `C=C1C(=CC=C2CCCC3(C)C2CCC3C(C)C=CC(C)(O)C(C)C)CC(O)CC1O` (stereo not drawn) [crystalline 1α,24-dihydroxyvitamin D2, 1α,24-dihydroxyvitamin D2], at bovine thymus VDR, the “binding affinity to VDR compared with reference standard (in words)” value is “approximately the same as that of a reference standard”. Moreover, the “ED50 (amount of material to displace 50% of the bound 3H-1α,25-dihydroxyvitamin D3)” value at bovine thymus VDR (listed as crystalline material) is “about 10 pg/tube”. In data set [1], the “overall retention of the compound (remained intact)” value was “over 88%” and the “share” value is 95%. Moreover, in data set [1] (listed as crystalline specimen), the “retention of the structure, weight-based normalization of the HPLC peak area” value was found to be 93% and the “absorbence at 265 nm retained” value was 93%.

`C=C1/C(=C\C=C2/CCC[C@]3(C)[C@@H]([C@H](C)CCCC(C)C)CC[C@@H]23)C[C@@H](O)C[C@@H]1O` [1α-(OH)D3, 1α-hydroxyvitamin D3]: in data set [2] (human, in vivo), the “safely obtainable dosage levels” value is reported as “dosage levels of 2.0 μg/day or greater are not safely obtained”.

On to `C=C1CC[C@H](O)C/C1=C/C=C1\CCC[C@]2(C)[C@@H]([C@H](C)/C=C/[C@H](C)C(C)C)CC[C@@H]12` [vitamin D2], for which, in data set [3], the “plasma metabolite after administration” value is listed as “one metabolite isolated co-migrated on HPLC with the standard 1α,24-(OH)2D2”.

On to `C=C1CC[C@H](O)C/C1=C/C=C1\CCC[C@]2(C)[C@@H]([C@H](C)CCCC(C)C)CC[C@@H]12` [vitamin D3], for which, in data set [3] (comparable rats), the “24-hydroxylated metabolite in plasma after administration” value is given as “no detectable 24-OH-D3”.

For the molecule `C=C1C(=CC=C2CCCC3(C)C2CCC3C(C)C=CC(C)(O)C(C)C)CC(O)CC1O` (stereo not drawn) [powdered 1α,24-dihydroxyvitamin D2, 1α,24-dihydroxyvitamin D2], on bovine thymus VDR, the “binding affinity to VDR compared with reference standard (in words)” value is given as “considerably less” and the “ED50 (amount of material to displace 50% of the bound 3H-1α,25-dihydroxyvitamin D3)” value is given as “about 40 pg/tube”. For the same molecule, the “binding activity relative to standard 1α,24-dihydroxyvitamin D2” value on bovine thymus VDR (powder form exposed to the same conditions) is listed as “less than 25%”. Also, in data set [1], the “overall retention of the compound (remained intact)” value was 35% and the “share” value was found to be 78%. In data set [1] (listed as powdered specimen), the “retention of the structure, weight-based normalization of the HPLC peak area” value worked out at 23% and the “absorbence at 265 nm retained” value is recorded as 45%.

As to `C=C1/C(=C\C=C2/CCC[C@]3(C)[C@@H]([C@H](C)/C=C/[C@](C)(O)C(C)C)CC[C@@H]23)C[C@@H](O)C[C@@H]1O` [1α,24(R)-(OH)2D2, 1α,24(R)-dihydroxyvitamin D2], the “Net vitamin D-inducible GH-production” value amounted to 1138 ng/mL in the data set with vitamin D receptor (VDR) (inducer 5 × 10^−8 M), 1256 ng/mL in the data set with vitamin D receptor (VDR) (inducer 10^−7 M), 1056 ng/mL in the data set with vitamin D receptor (VDR) (inducer 10^−8 M) and 36 ng/mL in the data set with vitamin D receptor (VDR) (inducer 10^−9 M). Besides, the “Total GH Production” value in the data set on vitamin D receptor (VDR) (inducer 5 × 10^−8 M) turned out to be 1182 ng/mL; in the data set with vitamin D receptor (VDR) (inducer 10^−7 M), 1300 ng/mL; in the data set on vitamin D receptor (VDR) (inducer 10^−8 M) it was 1100 ng/mL; in the data set on vitamin D receptor (VDR) (inducer 10^−9 M), 80 ng/mL.

As for `C=C1CC[C@H](O)C/C1=C/C=C1\CCC[C@]2(C)[C@@H]([C@H](C)CCCC(C)(C)O)CC[C@@H]12` [25-OH-D3, 25-hydroxyvitamin D3, reference compound], the “Net vitamin D-inducible GH-production” value was determined as 731 ng/mL with vitamin D receptor (VDR) (inducer 10^−5 M), 1056 ng/mL with vitamin D receptor (VDR) (inducer 10^−6 M) and 201 ng/mL in the data set on vitamin D receptor (VDR) (inducer 10^−7 M). Moreover, the “Total GH Production” value in the data set with vitamin D receptor (VDR) (inducer 10^−5 M) was determined as 775 ng/mL; with vitamin D receptor (VDR) (inducer 10^−6 M) it was 1100 ng/mL; with vitamin D receptor (VDR) (inducer 10^−7 M), 245 ng/mL.

Take `C=C1/C(=C\C=C2/CCC[C@]3(C)[C@@H]([C@H](C)/C=C/[C@H](C)C(C)C)CC[C@@H]23)C[C@@H](O)C[C@@H]1O` [1α-(OH)D2, 1α-hydroxyvitamin D2]: the “bone mass in human osteoporotic patients” value in data set [2] (dosages of 2.0 μg/day or higher) is given as “will reverse the loss of bone mass”.

In the case of `C=C1/C(=C\C=C2/CCC[C@]3(C)[C@@H]([C@H](C)/C=C/[C@H](C)C(C)(C)O)CC[C@@H]23)C[C@@H](O)C[C@@H]1O` [1α,25-(OH)2D2, 1α,25-dihydroxyvitamin D2, reference compound], the half-maximal binding on bovine thymus VDR (radioreceptor assay, Incstar kit) is recorded as 80 pg/mL. Also, the “Rate of Production” value in the data set on Hep 3B cells is on record as 7.4 pmol per 10^6 cells/day. The “blood level of metabolite” value in data set [4] (one day after a single 2 μg dose of 1α-OH-D2) was “approximately 11 pg/ml”. Besides, the “blood level of metabolite (average)” value in data set [4] (one day following the last dose of 8 μg/day 1α-OH-D2 for one week) worked out at 0.03 ng/mL.

With `C=C1CC[C@H](O)C/C1=C/C=C1\CCC[C@]2(C)[C@@H]([C@H](C)/C=C/C(C)(O)C(C)C)CC[C@@H]12` (stereo partly shown) [24-OH-D2, 24-hydroxyvitamin D2], the “plasma metabolite after administration” value in data set [3] was “one metabolite isolated co-migrated on HPLC with the standard 1α,24-(OH)2D2”.
